# Where two headings read alike, the source gives them in different places.
# Key:
# Assay in all cases: SelectScreen Kinase Profiling, single point inhibition and IC50 for off-target kinases
# Assay type in all cases: biochemical
# off-target kinases [1] = target: off-target kinases (Homo sapiens, UniProt Q9NYY3); conditions: PLK2, ATP Km app, ZLYTE
# off-target kinases [2] = target: off-target kinases (Homo sapiens, UniProt P51957); conditions: NEK4, ZLYTE, ATP Km app
# off-target kinases [3] = target: off-target kinases (Homo sapiens, UniProt P16234, D842V); conditions: PDGFRA D842V, ATP Km app, ZLYTE
# off-target kinases [4] = target: off-target kinases (Homo sapiens, UniProt P12931); conditions: SRC, ATP Km app, ZLYTE
# off-target kinases [5] = target: off-target kinases (Homo sapiens, UniProt Q05655); conditions: PRKCD (PKC delta), ZLYTE, ATP Km app
# off-target kinases [6] = target: off-target kinases (Homo sapiens, UniProt Q13464); conditions: ROCK1, ZLYTE, ATP Km app
# off-target kinases [7] = target: off-target kinases (Homo sapiens, UniProt P36888); conditions: FLT3, ATP Km app, ZLYTE
# off-target kinases [8] = target: off-target kinases (Homo sapiens, UniProt Q13882)
# off-target kinases [9] = target: off-target kinases (Homo sapiens, UniProt P37173); conditions: TGFBR2, LanthaScreen Binding
# off-target kinases [10] = target: off-target kinases (Homo sapiens, UniProt P16591); conditions: FER, ZLYTE, ATP Km app
# off-target kinases [11] = target: off-target kinases (Homo sapiens, UniProt P19784); conditions: CSNK2A2 (CK2 alpha 2), ZLYTE, ATP Km app
# off-target kinases (Homo sapiens, UniProt P19784), sequence (P19784 whole entry): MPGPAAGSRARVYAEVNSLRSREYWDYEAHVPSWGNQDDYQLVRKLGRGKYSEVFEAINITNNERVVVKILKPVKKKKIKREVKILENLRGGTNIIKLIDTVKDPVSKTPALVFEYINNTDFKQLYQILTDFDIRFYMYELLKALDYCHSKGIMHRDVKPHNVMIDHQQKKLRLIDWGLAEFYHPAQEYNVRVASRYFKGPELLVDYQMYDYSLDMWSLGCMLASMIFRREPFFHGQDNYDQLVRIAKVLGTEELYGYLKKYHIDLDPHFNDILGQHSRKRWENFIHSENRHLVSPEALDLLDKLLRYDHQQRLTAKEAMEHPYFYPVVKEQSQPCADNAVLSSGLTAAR
# off-target kinases (Homo sapiens, UniProt P36888), sequence (P36888 27-993): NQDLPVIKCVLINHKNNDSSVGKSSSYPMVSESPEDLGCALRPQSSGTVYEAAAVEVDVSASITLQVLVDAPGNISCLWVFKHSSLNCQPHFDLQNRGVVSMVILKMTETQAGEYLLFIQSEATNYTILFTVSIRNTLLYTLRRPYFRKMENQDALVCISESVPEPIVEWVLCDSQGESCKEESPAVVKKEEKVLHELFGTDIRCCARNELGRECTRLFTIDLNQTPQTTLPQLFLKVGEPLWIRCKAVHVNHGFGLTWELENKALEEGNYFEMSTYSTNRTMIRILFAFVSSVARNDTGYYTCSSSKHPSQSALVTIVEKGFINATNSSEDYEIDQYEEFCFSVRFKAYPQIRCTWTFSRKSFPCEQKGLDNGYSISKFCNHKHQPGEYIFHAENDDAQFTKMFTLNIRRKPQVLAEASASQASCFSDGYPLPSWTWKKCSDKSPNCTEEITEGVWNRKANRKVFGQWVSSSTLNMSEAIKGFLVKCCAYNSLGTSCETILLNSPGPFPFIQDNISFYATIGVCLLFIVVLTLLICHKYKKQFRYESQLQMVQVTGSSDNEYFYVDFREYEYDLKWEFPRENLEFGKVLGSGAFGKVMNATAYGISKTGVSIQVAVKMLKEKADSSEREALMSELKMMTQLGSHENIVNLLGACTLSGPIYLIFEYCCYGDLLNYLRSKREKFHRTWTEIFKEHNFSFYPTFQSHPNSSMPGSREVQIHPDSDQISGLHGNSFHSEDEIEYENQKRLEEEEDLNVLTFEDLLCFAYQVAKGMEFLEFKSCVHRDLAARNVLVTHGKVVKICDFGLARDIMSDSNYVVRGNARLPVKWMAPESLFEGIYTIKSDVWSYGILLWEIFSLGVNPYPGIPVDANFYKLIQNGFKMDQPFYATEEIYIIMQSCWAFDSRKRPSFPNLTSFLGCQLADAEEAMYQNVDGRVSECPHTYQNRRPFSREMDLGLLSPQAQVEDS
# off-target kinases (Homo sapiens, UniProt P37173), sequence (P37173 23-567): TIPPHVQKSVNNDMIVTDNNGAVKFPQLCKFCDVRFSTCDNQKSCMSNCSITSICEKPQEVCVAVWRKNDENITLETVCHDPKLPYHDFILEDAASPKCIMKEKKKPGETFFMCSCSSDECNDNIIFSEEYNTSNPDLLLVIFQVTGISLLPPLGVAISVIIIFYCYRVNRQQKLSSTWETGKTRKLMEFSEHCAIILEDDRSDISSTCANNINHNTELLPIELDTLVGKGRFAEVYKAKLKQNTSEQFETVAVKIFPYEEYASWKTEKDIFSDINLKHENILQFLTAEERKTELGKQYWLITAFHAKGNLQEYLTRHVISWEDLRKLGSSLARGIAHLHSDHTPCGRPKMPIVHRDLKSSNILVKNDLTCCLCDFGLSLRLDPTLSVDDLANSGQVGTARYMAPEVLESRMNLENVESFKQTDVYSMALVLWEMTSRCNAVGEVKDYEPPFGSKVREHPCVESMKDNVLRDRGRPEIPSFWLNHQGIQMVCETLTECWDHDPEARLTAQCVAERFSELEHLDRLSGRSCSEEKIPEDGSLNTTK
# off-target kinases (Homo sapiens, UniProt P16591), sequence (P16591 whole entry): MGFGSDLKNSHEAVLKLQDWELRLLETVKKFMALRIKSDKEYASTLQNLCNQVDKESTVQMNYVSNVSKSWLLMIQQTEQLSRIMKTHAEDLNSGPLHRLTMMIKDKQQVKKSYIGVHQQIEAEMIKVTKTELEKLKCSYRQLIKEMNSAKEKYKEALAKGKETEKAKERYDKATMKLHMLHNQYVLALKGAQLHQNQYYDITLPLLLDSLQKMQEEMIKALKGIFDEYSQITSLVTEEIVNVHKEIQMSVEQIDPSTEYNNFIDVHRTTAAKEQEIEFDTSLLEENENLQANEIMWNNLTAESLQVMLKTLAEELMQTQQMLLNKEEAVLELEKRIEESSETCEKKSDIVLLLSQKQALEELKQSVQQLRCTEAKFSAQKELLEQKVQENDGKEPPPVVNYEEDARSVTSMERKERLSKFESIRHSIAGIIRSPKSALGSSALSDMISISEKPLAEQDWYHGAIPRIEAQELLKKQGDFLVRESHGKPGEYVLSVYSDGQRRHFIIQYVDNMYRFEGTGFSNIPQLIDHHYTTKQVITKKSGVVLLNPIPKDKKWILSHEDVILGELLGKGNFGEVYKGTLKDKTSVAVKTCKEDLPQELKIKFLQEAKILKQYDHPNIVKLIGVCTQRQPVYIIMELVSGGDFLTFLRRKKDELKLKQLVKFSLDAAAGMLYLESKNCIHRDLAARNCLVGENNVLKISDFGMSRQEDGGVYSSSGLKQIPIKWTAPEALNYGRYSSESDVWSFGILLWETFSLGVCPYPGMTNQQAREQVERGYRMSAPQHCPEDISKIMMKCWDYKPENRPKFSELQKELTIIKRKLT
# off-target kinases (Homo sapiens, UniProt P16234, D842V), sequence (P16234 24-1089 D842V): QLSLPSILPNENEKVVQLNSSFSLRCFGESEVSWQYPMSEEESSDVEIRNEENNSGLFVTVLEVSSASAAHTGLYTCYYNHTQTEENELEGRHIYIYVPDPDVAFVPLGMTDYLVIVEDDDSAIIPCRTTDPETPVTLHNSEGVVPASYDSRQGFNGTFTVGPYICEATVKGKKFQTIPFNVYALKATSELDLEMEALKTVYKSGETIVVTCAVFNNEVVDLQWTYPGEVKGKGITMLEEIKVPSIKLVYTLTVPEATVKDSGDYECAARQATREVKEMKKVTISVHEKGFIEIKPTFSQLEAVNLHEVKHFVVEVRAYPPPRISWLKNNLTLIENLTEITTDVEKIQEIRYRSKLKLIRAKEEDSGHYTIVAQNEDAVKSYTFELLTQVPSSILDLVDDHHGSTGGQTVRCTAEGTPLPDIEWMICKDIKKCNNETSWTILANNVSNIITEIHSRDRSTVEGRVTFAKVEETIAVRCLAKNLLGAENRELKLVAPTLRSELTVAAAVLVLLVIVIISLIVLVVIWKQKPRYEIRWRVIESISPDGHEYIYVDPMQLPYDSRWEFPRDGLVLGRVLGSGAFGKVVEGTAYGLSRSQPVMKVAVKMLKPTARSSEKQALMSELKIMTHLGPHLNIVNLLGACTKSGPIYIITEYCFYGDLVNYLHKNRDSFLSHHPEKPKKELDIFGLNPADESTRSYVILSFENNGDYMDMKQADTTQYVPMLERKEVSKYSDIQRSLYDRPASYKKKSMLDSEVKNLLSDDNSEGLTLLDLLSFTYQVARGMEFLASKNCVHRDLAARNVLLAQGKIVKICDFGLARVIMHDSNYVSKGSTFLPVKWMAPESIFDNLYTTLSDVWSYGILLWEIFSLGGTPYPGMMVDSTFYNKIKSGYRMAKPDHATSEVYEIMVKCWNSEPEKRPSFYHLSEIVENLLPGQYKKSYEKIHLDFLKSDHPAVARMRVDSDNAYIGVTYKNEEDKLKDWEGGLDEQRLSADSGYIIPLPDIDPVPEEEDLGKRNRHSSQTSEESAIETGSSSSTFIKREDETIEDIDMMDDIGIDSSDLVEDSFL
# off-target kinases (Homo sapiens, UniProt Q13882), sequence (Q13882 whole entry): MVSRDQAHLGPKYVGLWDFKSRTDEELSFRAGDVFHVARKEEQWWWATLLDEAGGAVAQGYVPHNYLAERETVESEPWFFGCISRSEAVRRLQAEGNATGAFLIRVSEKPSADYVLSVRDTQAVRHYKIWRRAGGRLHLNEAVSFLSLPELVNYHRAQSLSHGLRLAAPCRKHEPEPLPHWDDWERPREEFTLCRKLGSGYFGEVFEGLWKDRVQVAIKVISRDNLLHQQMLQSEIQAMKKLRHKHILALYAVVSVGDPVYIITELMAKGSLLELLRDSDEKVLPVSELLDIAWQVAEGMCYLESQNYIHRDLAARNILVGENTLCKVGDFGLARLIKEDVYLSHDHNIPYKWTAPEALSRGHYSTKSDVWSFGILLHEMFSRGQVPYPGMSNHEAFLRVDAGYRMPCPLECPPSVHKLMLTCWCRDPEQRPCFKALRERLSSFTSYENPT
# off-target kinases (Homo sapiens, UniProt P12931), sequence (P12931 whole entry): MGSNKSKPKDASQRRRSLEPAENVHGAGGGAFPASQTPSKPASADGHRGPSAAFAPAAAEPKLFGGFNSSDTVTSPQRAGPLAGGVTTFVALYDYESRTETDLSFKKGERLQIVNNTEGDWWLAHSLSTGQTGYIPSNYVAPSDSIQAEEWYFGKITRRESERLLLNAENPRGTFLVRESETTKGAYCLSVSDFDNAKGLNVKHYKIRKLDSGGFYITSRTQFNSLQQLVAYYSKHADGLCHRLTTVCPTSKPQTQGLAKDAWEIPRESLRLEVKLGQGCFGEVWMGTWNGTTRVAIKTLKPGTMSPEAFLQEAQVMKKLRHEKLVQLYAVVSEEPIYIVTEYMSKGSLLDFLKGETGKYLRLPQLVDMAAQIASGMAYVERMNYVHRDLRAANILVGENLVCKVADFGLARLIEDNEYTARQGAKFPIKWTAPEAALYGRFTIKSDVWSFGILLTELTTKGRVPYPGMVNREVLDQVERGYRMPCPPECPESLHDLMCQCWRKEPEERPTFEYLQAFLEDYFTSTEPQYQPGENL
smiles,measurement,setting,value
"N#Cc1cc(-c2ncnc(Nc3ccc(N4CCN(C5COC5)CC4)cc3)n2)ccc1OC1CCOCC1 [Compound 1, 5-(4-((4-(4-(oxetan-3-yl)piperazin-1-yl)phenyl)amino)-1,3,5-triazin-2-yl)-2-((tetrahydro-2H-pyran-4-yl)oxy)benzonitrile]",inhibition,off-target kinases [1]; read-out: % Inhibition 1,60%
same,inhibition,off-target kinases [1]; read-out: % Inhibition 2,64%
same,inhibition,off-target kinases [1]; read-out: % Inhibition Avg,62%
same,inhibition,off-target kinases [2]; read-out: % Inhibition 1,23%
same,inhibition,off-target kinases [2]; read-out: % Inhibition 2,23%
same,inhibition,off-target kinases [2]; read-out: % Inhibition Avg,23%
same,inhibition,off-target kinases [3]; read-out: % Inhibition 1,77%
same,inhibition,off-target kinases [3]; read-out: % Inhibition 2,73%
same,inhibition,off-target kinases [3]; read-out: % Inhibition Avg,75%
same,inhibition,off-target kinases [4]; read-out: % Inhibition 1,45%
same,inhibition,off-target kinases [4]; read-out: % Inhibition 2,44%
same,inhibition,off-target kinases [4]; read-out: % Inhibition Avg,45%
same,inhibition,off-target kinases [5]; read-out: % Inhibition 1,4%
same,inhibition,off-target kinases [5]; read-out: % Inhibition 2,-4%
same,inhibition,off-target kinases [5]; read-out: % Inhibition Avg,0%
same,inhibition,off-target kinases [6]; read-out: % Inhibition 1,6%
same,inhibition,off-target kinases [6]; read-out: % Inhibition 2,14%
same,inhibition,off-target kinases [6]; read-out: % Inhibition Avg,10%
same,inhibition,off-target kinases [7]; read-out: % Inhibition 1,42%
same,inhibition,off-target kinases [7]; read-out: % Inhibition 2,49%
same,inhibition,off-target kinases [7]; read-out: % Inhibition Avg,45%
same,inhibition,"off-target kinases [8]; PTK6 (Brk), ZLYTE, ATP Km app, read-out: % Inhibition 2",-1%
same,inhibition,off-target kinases [8]; read-out: % Inhibition 1,-1%
same,inhibition,off-target kinases [8]; read-out: % Inhibition Avg,-1%
same,inhibition,off-target kinases [9]; read-out: % Inhibition 1,92%
same,inhibition,off-target kinases [9]; read-out: % Inhibition 2,95%
same,inhibition,off-target kinases [9]; read-out: % Inhibition Avg,93%
same,inhibition,off-target kinases [10]; read-out: % Inhibition 1,4%
same,inhibition,off-target kinases [10]; read-out: % Inhibition 2,9%
same,inhibition,off-target kinases [10]; read-out: % Inhibition Avg,7%
same,inhibition,off-target kinases [11]; read-out: % Inhibition 1,32%
same,inhibition,off-target kinases [11]; read-out: % Inhibition 2,30%
same,inhibition,off-target kinases [11]; read-out: % Inhibition Avg,31%

# Reference: patent US11572590B2, “Methods for evaluating tumor cell spheroids using 3D microfluidic cell culture device” (Dana-Farber Cancer Institute, Inc., priority 2017, dated 2023)
